# Experimental data taken from patent US20140023611A1 (priority 2010, published 2014).
# Target: T1, rat NaP2b (SLC34A2) (Rattus norvegicus, UniProt Q9JJ09)
# T1 construct: host or cells: HEK293
# T1 sequence (Q9JJ09 1-695): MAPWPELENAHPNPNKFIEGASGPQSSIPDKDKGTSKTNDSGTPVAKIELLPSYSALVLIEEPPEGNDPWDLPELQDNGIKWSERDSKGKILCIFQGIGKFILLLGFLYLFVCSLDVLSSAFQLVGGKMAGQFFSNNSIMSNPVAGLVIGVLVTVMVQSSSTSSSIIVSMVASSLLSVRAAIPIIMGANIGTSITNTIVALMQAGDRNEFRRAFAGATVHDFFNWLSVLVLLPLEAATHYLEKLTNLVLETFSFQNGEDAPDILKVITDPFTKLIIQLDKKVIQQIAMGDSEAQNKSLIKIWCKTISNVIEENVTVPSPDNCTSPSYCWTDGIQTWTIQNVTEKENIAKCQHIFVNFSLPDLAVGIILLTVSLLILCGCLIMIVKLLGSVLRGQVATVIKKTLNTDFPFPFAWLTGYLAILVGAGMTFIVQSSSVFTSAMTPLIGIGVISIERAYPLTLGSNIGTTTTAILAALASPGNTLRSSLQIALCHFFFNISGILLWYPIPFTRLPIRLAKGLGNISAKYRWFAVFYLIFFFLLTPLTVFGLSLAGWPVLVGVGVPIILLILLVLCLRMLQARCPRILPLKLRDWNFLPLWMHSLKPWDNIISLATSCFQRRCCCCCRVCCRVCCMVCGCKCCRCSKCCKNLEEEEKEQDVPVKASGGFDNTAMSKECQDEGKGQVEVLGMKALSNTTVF
# Assay: NaP2b-mediated Pi transport (33P uptake) in transfected HEK293 cells, rat NaP2b
# Format: cell-based
# Conditions: Structure (III) examples, Table 2; HEK293, 0.1 mM phosphate; read-out: pIC50 range for rat Nap2b (converted)
# Experimental: HEK293 cells were obtained from the American Type Culture collection and propagated per their instructions. Expression clones for rat and human NaP2b (SLC34A2) were obtained from Open Biosystems (Catalog numbers MRN1768-9510282, and MHS1010-99823026, respectively). The sequence of the human protein was mutated to insert a threonine after residue 37, and to introduce a N39D mutation.
# (§1) The rate of phosphate (Pi) uptake into HEK293 cells was measured using a modification of the method described by Mohrmann et al. (Mohrmann, I., Mohrmann, M., Biber, J., and Murer, H. (1986) Am. J. Phys. 250(3 Pt 1):G323-30.) Transfected HEK293 cells were treated with a pharmacological agent to minimize endogenous PiT-mediated phosphate transport activity, such that the only remaining sodium-dependent phosphate transport activity is that which was bestowed by introduction of the NaP2b genes.
# (§2) Cells were seeded into 96-well plates at 25,000 cells/well and cultured overnight. Lipofectamine 2000 (Invitrogen) was used to introduce the NaP2b cDNA, and the cells were allowed to approach confluence during a second overnight incubation. […] Cells were then overlayed with either choline uptake buffer or sodium uptake buffer (14 mM Tris, 137 mM sodium chloride, 5.4 mM KCl, 2.8 mM CaCl2, 1.2 mM MgSO4, 100 uM KH2PO4, PiT-silencing agent, 1 mg/mL Bovine Serum Albumin, pH 7.4) containing 6-9 uCi/mL ^33P orthophosphoric acid (Perkin Elmer) and test compound. Each compound was tested at twelve concentrations ranging from 0.1 nM to 30 uM. Assays were run in duplicate.
# After incubation for 3-30 minutes at room temperature, assay mixtures were removed, and the cells were washed twice with ice cold stop solution (137 mM sodium chloride, 14 mM Tris, pH 7.4). Cells were lysed by addition of 20 μL 0.1% Tween 80 followed by 100 μL scintillation fluid, and counted using a TopCount (Perkin Elmer).
# pIC50 (the negative log of the IC50) values of the test compounds were calculated using GraphPad Prism.
# HEK293 cells were obtained from the American Type Culture collection and propagated per their instructions. Expression clones for rat and mouse NaP2b (SLC34A2) cDNAs were obtained from Open Biosystems (Catalog numbers MRN1768-9510282 and MMM1013-98478398 respectively).
# as §1, with “phosphate” for “phosphate (Pi)”
# as §2, with “agent, 0.1% wt/v bovine serum albumin,” for “agent, 1 mg/mL Bovine Serum Albumin,”, “Each compounds” for “Each compound”
# After incubation for 3-30 minutes at room temperature, assay mixtures were removed, and the cells were washed twice with ice cold stop solution (137 mM sodium chloride, 14 mM Tris, pH 7.4).
row,IC50 [nM],Structure (SMILES)
1,1000 to 7940,O=C(O)CCSCc1cccc(C(=O)Nc2ccc(N3CCCCC3)cc2C(=O)Nc2cnc(-c3cccc(C(F)(F)F)c3)cn2)c1 [Example 12]

# Same assay, conditions: Structure (V) examples, Table 2; rat NaP2b, HEK293; read-out: pIC50 Range (converted)
row,IC50 [nM],Structure (SMILES)
1,100 to 794,O=C(Nc1ccc(N2CCCCC2)cc1C(=O)N/N=C/c1ccc(Cl)c(C(F)(F)F)c1)c1cccc(Cn2cc(CO)nn2)c1 [Example 8]
2,100 to 794,[N-]=[N+]=NCCOCCOCCOCCNC(=O)CCSCc1cccc(C(=O)Nc2ccc(N3CCCCC3)cc2C(=O)N/N=C/c2ccc(Cl)c(C(F)(F)F)c2)c1 [Ex. 33]
3,100 to 794,O=C(O)CCOCCOCCOCCOCCOCCOCCOCCOCCSCc1cccc(C(=O)Nc2ccc(Cl)cc2C(=O)N/N=C/c2ccc(Cl)c(C(F)(F)F)c2)c1 [Ex. 29]
4,100 to 794,"O=C(Nc1ccc(N2CCCCC2)cc1C(=O)N/N=C/c1ccc(Cl)c(C(F)(F)F)c1)c1cccc(Cc2nc(CCO)cs2)c1 [Ex. 45, (E)-N-(2-(2-(4-chloro-3-(trifluoromethyl)benzylidene)hydrazine-carbonyl)-4-(piperidin-1-yl)phenyl)-3-((4-(2-hydroxyethyl)thiazol-2-yl)methyl)benzamide]"
5,10 to 79.4,O=C(Nc1ccc(Cl)cc1C(=O)N/N=C/c1ccc(Cl)c(C(F)(F)F)c1)c1cccc(Cn2cc(CCO)nn2)c1 [Ex. 30]
6,100 to 794,[N-]=[N+]=NCCOCCOCCOCCNCc1cccc(C(=O)Nc2ccc(N3CCCCC3)cc2C(=O)N/N=C/c2ccc(Cl)c(C(F)(F)F)c2)c1 [Ex. 32]
7,10000 to 100000,O=C(CCOCCOCCOCCOCCOCCOCCOCCOCCSCc1cccc(C(=O)Nc2ccc(N3CCCCC3)cc2C(=O)N/N=C/c2ccc(Cl)c(C(F)(F)F)c2)c1)N[C@H]1C(O)O[C@H](CO)[C@@H](O)[C@@H]1O (some centres unmarked) [Ex. 28]
8,100 to 794,"COCCNC(=O)CC[S+]([O-])Cc1cccc(C(=O)Nc2ccc(N3CCCCC3)cc2C(=O)N/N=C/c2ccc(Cl)c(C(F)(F)F)c2)c1 (centres unmarked) [Ex. 51, (E)-N-(2-(2-(4-chloro-3-(trifluoromethyl)benzylidene)hydrazinecarbonyl)-4-(piperidin-1-yl)phenyl)-3-((3-(2-methoxyethylamino)-3-oxopropylsulfinyl)methyl)benzamide]"
9,1000 to 7940,CC(=O)N[C@@H](CCCCNC(=O)CCSCc1cccc(C(=O)Nc2ccc(N3CCCCC3)cc2C(=O)N/N=C/c2ccc(Cl)c(C(F)(F)F)c2)c1)C(=O)O [Ex. 35]
10,100 to 794,[N-]=[N+]=NCCOCCOCCOCCNC(=O)C1CCN(Cc2cccc(C(=O)Nc3ccc(N4CCCCC4)cc3C(=O)N/N=C/c3ccc(Cl)c(C(F)(F)F)c3)c2)CC1 [Ex. 34]
11,10 to 79.4,O=C(Nc1ccc(N2CCCCC2)cc1C(=O)N/N=C/c1ccc(Cl)c(C(F)(F)F)c1)c1cccc(C#CCCO)c1 [Ex. 31]
12,1000 to 7940,NC(Cc1cn(Cc2cccc(C(=O)Nc3ccc(N4CCCCC4)cc3C(=O)N/N=C/c3ccc(Cl)c(C(F)(F)F)c3)c2)nn1)C(=O)O (centres unmarked) [Example 11]
13,10000 to 100000,O=C(Nc1ccc(N2CCCCC2)cc1C(=O)N/N=C/c1ccc(Cl)c(C(F)(F)F)c1)c1cccc(Cn2cc(CCCP(=O)(O)O)nn2)c1 [Example 26]
14,1000 to 7940,NCc1cn(Cc2cccc(C(=O)Nc3ccc(N4CCCCC4)cc3C(=O)N/N=C/c3ccc(Cl)c(C(F)(F)F)c3)c2)nn1 [Example 10]
15,100 to 794,"O=C(CCSCc1cccc(C(=O)Nc2ccc(N3CCCCC3)cc2C(=O)N/N=C/c2ccc(Cl)c(C(F)(F)F)c2)c1)Nc1ccc(B(O)O)cc1 [Ex. 46, (E)-4-(3-(3-(2-(2-(4-chloro-3-(trifluoromethyl)benzylidene)hydrazinecarbonyl)-4-(piperidin-1-yl)phenylcarbamoyl)benzylthio)propanamido)phenylboronic acid]"
16,100 to 794,O=C(O)c1ccc(-c2cn(Cc3cccc(C(=O)Nc4ccc(N5CCCCC5)cc4C(=O)N/N=C/c4ccc(Cl)c(C(F)(F)F)c4)c3)nn2)cc1 [Example 12]
17,1000 to 7940,NCCOCCOCCOCCc1cn(Cc2cccc(C(=O)Nc3ccc(N4CCCCC4)cc3C(=O)N/N=C/c3ccc(Cl)c(C(F)(F)F)c3)c2)nn1 [Example 25]
18,10000 to 100000,O=C(Nc1ccc(N2CCCCC2)cc1C(=O)N/N=C/c1ccc(Cl)c(C(F)(F)F)c1)c1cccc(Cn2cc(CCOCCOCCOCCNC(=O)C(O)C(O)C(=O)O)nn2)c1 (centres unmarked) [Ex. 27]

# System: not given
# Assay: not given
# Conditions: human absorption data, common drugs; cited from earlier work
row,Structure (SMILES),% FA [%]
1,Cc1ccccc1N1C(=O)c2cc(S(N)(=O)=O)c(Cl)cc2NC1C (centres unmarked) [metolazone],64
2,OC[C@H]1O[C@@H](O[C@@H]2[C@@H](CO)OC(O)(CO)[C@H]2O)[C@H](O)[C@@H](O)[C@H]1O (mixture of isomers) [lactulose],0.6
3,O=C(O)P(=O)(O)O [foscarnet],17
4,CC(=O)Nc1ccc(OCC(O)CNC(C)C)cc1 (centres unmarked) [practolol],95
5,CC(C)NCC(O)COc1cccc2[nH]ccc12 (centres unmarked) [pindolol],92
6,NC[C@H]1CC[C@H](C(=O)O)CC1 [tranexamic acid],55
7,O=C(O)c1cc(/N=N/c2ccc(S(=O)(=O)Nc3ccccn3)cc2)ccc1O [sulfasalazine],12
8,C=CCOc1ccccc1OCC(O)CNC(C)C (centres unmarked) [oxprenolol],97
9,CCN1CCCC1CNC(=O)c1cc(S(N)(=O)=O)ccc1OC (centres unmarked) [sulpiride],36
10,OC[C@H]1O[C@H](OC[C@H]2O[C@H](O[C@]3(CO)O[C@H](CO)[C@@H](O)[C@@H]3O)[C@H](O)[C@@H](O)[C@@H]2O)[C@H](O)[C@@H](O)[C@H]1O [raffinose],0.3
11,OC[C@@H](O)[C@@H](O)[C@H](O)[C@H](O)CO [mannitol],26
12,O=C(O)c1cc(/N=N/c2ccc(O)c(C(=O)O)c2)ccc1O [olsalazine],2.3
13,C=CCc1ccccc1OCC(O)CNC(C)C (centres unmarked) [alprenolol],96
